In US9932637B2, “Genetic polymorphisms associated with cardiovascular disorders and drug response, methods of detection and uses thereof” (CELERA CORPORATION, priority 2003, dated 2018):

Test system: patients with prior myocardial infarction (CARE study)
Experiment: CARE: association of SNPs with pravastatin treatment in cardiovascular events prevention (logistic regression, odds ratio pravastatin vs placebo by genotype; Table 8)
Format: in vivo, human
Conditions: for Definite Nonfatal MI, n/total (%) / Fatal/Nonfatal MI (def & prob), n/total (%) / MI (Fatal/Nonfatal), n/total (%) / Nonfatal MI (def & prob), n/total (%): BCL2A1 hCV7509650, All Patients
Text: In order to identify genetic markers associated with acute coronary events (e.g. MI, stroke, unstable angina, congestive heart failure, etc.) or response to statin treatment for the prevention of coronary events, samples from the Cholesterol and Recurrent Events (CARE) study (a randomized multicentral double-blinded trial on secondary prevention of acute coronary events with pravastatin) (Sacks et al., 1991, Am. J. Cardiol. 68: 1436-1446) were genotyped. A well-documented myocardial infarction (MI) was one of the enrollment criteria for entry into the CARE study. Patients were enrolled in the CARE trial from 80 participating study centers. […] Patients were randomized to receive either 40 mg of pravastatin once daily or a matching placebo. The primary endpoint of the trial was death from coronary heart disease and the median duration of follow-up was 5.0 years (range, 4.0 to 6.2 years). […] Secondary endpoints of other related cardiovascular or metabolic disease events, and changes in clinical variables were also recorded in pravastatin-treated and placebo groups. All individuals included in the study had signed a written informed consent form and the study protocol was approved by the respective Institutional Review Boards (IRBs).
For genotyping SNPs in CARE patient samples, DNA was extracted from blood samples using conventional DNA extraction methods such as the QIA-amp kit from Qiagen. Genotypes were obtained on an ABI PRISM® 7900HT Sequence Detection PCR system (Applied Biosystems, Foster City, Calif.) by kinetic allele-specific PCR, similar to the method described by Germer et al. (Germer S., Holland M. J., Higuchi R. 2000, Genome Res. 10: 258-266).
Statistical analysis for association of SNPs with pravastatin treatment in cardiovascular events prevention (Table 8) was carried out using an overall logistic regression model that included an intercept, a parameter for the effect of a genotype containing two rare alleles versus a genotype containing no rare alleles, a parameter for the effect of a genotype containing one rare allele versus a genotype containing no rare alleles, a parameter for the effect of use of pravastatin versus the use of placebo, and parameters for the interaction effects between SNP genotypes and pravastatin use. The test of the overall model is a chi-square test with two degrees of freedom for analyses containing all three genotypes, and one degree of freedom for analyses containing two genotypes.
Effect sizes were estimated through odds ratios (pravastatin group versus placebo) for carriers of each genotype (groups of 0, 1, and 2 minor allele carriers). The effect was considered to be significant if p-value for testing whether any of the interactions between SNP genotypes and pravastatin use were <0.05. […] Odds ratios less than one indicate that the specific SNP allele has a protective effect and odds ratios greater than one indicate that the specific SNP allele has an adverse effect.

[1] = CCL4 hCV12120554, All Patients, 0 Rare Alleles, Prava arm
[2] = CCL4 hCV12120554, All Patients, 1 Rare Allele, Prava arm

CC[C@H](C)C(=O)O[C@H]1C[C@H](O)C=C2C=C[C@H](C)[C@H](CC[C@@H](O)C[C@@H](O)CC(=O)O)[C@H]21 [pravastatin]
Odds ratio pravastatin vs placebo (APOE hCV905013, All Patients, Nonfatal MI (Probable/Definite), 1 rare allele): 0.91
Odds ratio pravastatin vs placebo (APOE hCV905013, All Patients, Nonfatal MI (Probable/Definite), 2 rare alleles): 0.49
Definite Nonfatal MI, n/total (%) (0 Rare Alleles, Prava arm): (6.3%)
Fatal/Nonfatal MI (def & prob), n/total (%) (0 Rare Alleles, Prava arm): (8.7%)
MI (Fatal/Nonfatal), n/total (%) (0 Rare Alleles, Prava arm): (9.1%)
Nonfatal MI (def & prob), n/total (%) (0 Rare Alleles, Prava arm): (8.1%)
Definite Nonfatal MI, n/total (%) (1 Rare Allele, Prava arm): (7.9%)
Fatal/Nonfatal MI (def & prob), n/total (%) (1 Rare Allele, Prava arm): (11.4%)
MI (Fatal/Nonfatal), n/total (%) (1 Rare Allele, Prava arm): (11.4%)
Nonfatal MI (def & prob), n/total (%) (1 Rare Allele, Prava arm): (10.2%)
Definite Nonfatal MI, n/total (%) (2 Rare Alleles, Prava arm): (3.9%)
Fatal/Nonfatal MI (def & prob), n/total (%) (2 Rare Alleles, Prava arm): (6.9%)
MI (Fatal/Nonfatal), n/total (%) (2 Rare Alleles, Prava arm): (6.9%)
Nonfatal MI (def & prob), n/total (%) (2 Rare Alleles, Prava arm): (6.9%)
Odds ratio pravastatin vs placebo (BCL2A1 hCV7509650, All Patients, Definite Nonfatal MI, 0 rare alleles): 0.55
Odds ratio pravastatin vs placebo (BCL2A1 hCV7509650, All Patients, Definite Nonfatal MI, 1 rare allele): 1.09
Odds ratio pravastatin vs placebo (BCL2A1 hCV7509650, All Patients, Definite Nonfatal MI, 2 rare alleles): 0.35
Odds ratio pravastatin vs placebo (BCL2A1 hCV7509650, All Patients, Fatal/Nonfatal MI (def & prob), 0 rare alleles): 0.51
Odds ratio pravastatin vs placebo (BCL2A1 hCV7509650, All Patients, Fatal/Nonfatal MI (def & prob), 1 rare allele): 1.00
Odds ratio pravastatin vs placebo (BCL2A1 hCV7509650, All Patients, Fatal/Nonfatal MI (def & prob), 2 rare alleles): 0.46
Odds ratio pravastatin vs placebo (BCL2A1 hCV7509650, All Patients, MI (Fatal/Nonfatal), 0 rare alleles): 0.53
Odds ratio pravastatin vs placebo (BCL2A1 hCV7509650, All Patients, MI (Fatal/Nonfatal), 1 rare allele): 0.99
Odds ratio pravastatin vs placebo (BCL2A1 hCV7509650, All Patients, MI (Fatal/Nonfatal), 2 rare alleles): 0.46
Odds ratio pravastatin vs placebo (BCL2A1 hCV7509650, All Patients, Nonfatal MI (def & prob), 0 rare alleles): 0.52
Odds ratio pravastatin vs placebo (BCL2A1 hCV7509650, All Patients, Nonfatal MI (def & prob), 1 rare allele): 1.09
Odds ratio pravastatin vs placebo (BCL2A1 hCV7509650, All Patients, Nonfatal MI (def & prob), 2 rare alleles): 0.56
Cardiovascular Mortality, n/total (%) [1]: (4.0%)
Fatal Atherosclerotic Cardiovascular Disease, n/total (%) [1]: (4.0%)
Fatal Coronary Heart Disease, n/total (%) [1]: (3.5%)
Fatal/Nonfatal Atherosclerotic CV Disease, n/total (%) [1]: (34.4%)
Total Coronary Heart Disease Events, n/total (%) [1]: (30.5%)
Total Mortality, n/total (%) [1]: (6.0%)
Cardiovascular Mortality, n/total (%) [2]: (2.5%)
Fatal Atherosclerotic Cardiovascular Disease, n/total (%) [2]: (2.2%)
Fatal Coronary Heart Disease, n/total (%) [2]: (2.2%)
Fatal/Nonfatal Atherosclerotic CV Disease, n/total (%) [2]: (29.9%)
Total Coronary Heart Disease Events, n/total (%) [2]: (25.1%)
Total Mortality, n/total (%) [2]: (4.0%)
Odds ratio pravastatin vs placebo (CCL4 hCV12120554, All Patients, Cardiovascular Mortality, 0 rare alleles): 1.30
Odds ratio pravastatin vs placebo (CCL4 hCV12120554, All Patients, Cardiovascular Mortality, 1 rare allele): 0.31
Odds ratio pravastatin vs placebo (CCL4 hCV12120554, All Patients, Fatal Atherosclerotic Cardiovascular Disease, 0 rare alleles): 1.30
Odds ratio pravastatin vs placebo (CCL4 hCV12120554, All Patients, Fatal Atherosclerotic Cardiovascular Disease, 1 rare allele): 0.28
Odds ratio pravastatin vs placebo (CCL4 hCV12120554, All Patients, Fatal Coronary Heart Disease, 0 rare alleles): 1.28
Odds ratio pravastatin vs placebo (CCL4 hCV12120554, All Patients, Fatal Coronary Heart Disease, 1 rare allele): 0.31
Odds ratio pravastatin vs placebo (CCL4 hCV12120554, All Patients, Fatal/Nonfatal Atherosclerotic CV Disease, 0 rare alleles): 0.86
Odds ratio pravastatin vs placebo (CCL4 hCV12120554, All Patients, Fatal/Nonfatal Atherosclerotic CV Disease, 1 rare allele): 0.55
Odds ratio pravastatin vs placebo (CCL4 hCV12120554, All Patients, Total Coronary Heart Disease Events, 0 rare alleles): 0.87
Odds ratio pravastatin vs placebo (CCL4 hCV12120554, All Patients, Total Coronary Heart Disease Events, 1 rare allele): 0.55
Odds ratio pravastatin vs placebo (CCL4 hCV12120554, All Patients, Total Mortality, 0 rare alleles): 1.17
Odds ratio pravastatin vs placebo (CCL4 hCV12120554, All Patients, Total Mortality, 1 rare allele): 0.40
Total Coronary Heart Disease Events, n/total (%) (CCL11 hCV7449808, All Patients, 0 Rare Alleles, Prava, n/total 310/1025): (30.2%)
Fatal/Non-fatal Atherosclerotic CV Disease, n/total (%) (CCL11 hCV7449808, All Patients, 0 Rare Alleles, Prava, n/total 359/1025): (35.0%)
Hosp. for Cardiovascular Disease, n/total (%) (CCL11 hCV7449808, All Patients, 0 Rare Alleles, Prava, n/total 423/1025): (41.3%)
Total Cardiovascular Disease Events, n/total (%) (CCL11 hCV7449808, All Patients, 0 Rare Alleles, Prava, n/total 436/1025): (42.5%)
Total Coronary Heart Disease Events, n/total (%) (CCL11 hCV7449808, All Patients, 1 Rare Allele, Prava, n/total 127/448): (28.3%)
Fatal/Non-fatal Atherosclerotic CV Disease, n/total (%) (CCL11 hCV7449808, All Patients, 1 Rare Allele, Prava, n/total 139/448): (31.0%)
Hosp. for Cardiovascular Disease, n/total (%) (CCL11 hCV7449808, All Patients, 1 Rare Allele, Prava, n/total 176/448): (39.3%)
Total Cardiovascular Disease Events, n/total (%) (CCL11 hCV7449808, All Patients, 1 Rare Allele, Prava, n/total 181/448): (40.4%)
